Results from the supplement of paper PMC10307832.

Experiments:
Assay in all cases: relative viability (nuclei count vs DMSO), 5 days (fraction); higher = more cells survive
NCI-H727 = tested on: NCI-H727
How it was run: (§1)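 Lung cancer cell lines were seeded in 1536-well plates and dosed by pin tool the next day, with either a single drug or a fixed anchor-drug dose combined with five library-drug doses (not always all listed) spaced in √10 steps. Five days later, one step fixed the cells and stained their nuclei (final 0.05% Triton X-100, 1% formaldehyde, 1 ug/ml Hoechst), and nuclei were counted on 4× images. Relative viability is the nuclei count in treated wells divided by the count in vehicle wells, and each value is the median of duplicate plates.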

NCI-H2009 = tested on: NCI-H2009
How it was run: as §1

ABC-1 = tested on: ABC-1
How it was run: as §1

NCI-H661 = tested on: NCI-H661
How it was run: as §1

NCI-H1437 = tested on: NCI-H1437
How it was run: as §1

NCI-H460 = tested on: NCI-H460
How it was run: as §1

LK-2 = tested on: LK-2
How it was run: as §1

NCI-H1666 = tested on: NCI-H1666
How it was run: as §1

SW 900 = tested on: SW 900
How it was run: as §1

HCC-366 = tested on: HCC-366
How it was run: as §1

201T = tested on: 201T
How it was run: as §1

COc1cc2nccc(Oc3ccc(NC(=O)Nc4cc(C)on4)c(Cl)c3)c2cc1OC [Tivozanib] + Cc1nc(Nc2ncc(C(=O)Nc3c(C)cccc3Cl)s2)cc(N2CCN(CCO)CC2)n1 [Dasatinib] (partner 0.075 µM)
relative viability (NCI-H727; first compound 0.005 µM): 0.339 | relative viability (NCI-H727; first compound 0.01581 µM): 0.33 | relative viability (NCI-H727; first compound 0.05 µM): 0.44 | relative viability (NCI-H727; first compound 0.1581 µM): 0.328 | relative viability (NCI-H727; first compound 0.5 µM): 0.451 | relative viability (NCI-H2009; first compound 0.005 µM): 0.31 | relative viability (NCI-H2009; first compound 0.01581 µM): 0.299 | relative viability (NCI-H2009; first compound 0.05 µM): 0.333 | relative viability (NCI-H2009; first compound 0.1581 µM): 0.262 | relative viability (NCI-H2009; first compound 0.5 µM): 0.22 | relative viability (ABC-1; first compound 0.005 µM): 0.649 | relative viability (ABC-1; first compound 0.01581 µM): 0.583 | relative viability (ABC-1; first compound 0.05 µM): 0.729 | relative viability (ABC-1; first compound 0.1581 µM): 0.489 | relative viability (ABC-1; first compound 0.5 µM): 0.323 | relative viability (NCI-H661; first compound 0.005 µM): 0.851 | relative viability (NCI-H661; first compound 0.01581 µM): 0.909 | relative viability (NCI-H661; first compound 0.05 µM): 0.95 | relative viability (NCI-H661; first compound 0.1581 µM): 0.834 | relative viability (NCI-H661; first compound 0.5 µM): 0.796 | relative viability (NCI-H1437; first compound 0.005 µM): 0.292 | relative viability (NCI-H1437; first compound 0.01581 µM): 0.449 | relative viability (NCI-H1437; first compound 0.05 µM): 0.38 | relative viability (NCI-H1437; first compound 0.1581 µM): 0.284 | relative viability (NCI-H1437; first compound 0.5 µM): 0.276 | relative viability (NCI-H460; first compound 0.005 µM): 0.401 | relative viability (NCI-H460; first compound 0.01581 µM): 0.486 | relative viability (NCI-H460; first compound 0.05 µM): 0.549 | relative viability (NCI-H460; first compound 0.1581 µM): 0.551 | relative viability (NCI-H460; first compound 0.5 µM): 0.529 | relative viability (LK-2; first compound 0.005 µM): 0.226 | relative viability (LK-2; first compound 0.01581 µM): 0.29 | relative viability (LK-2; first compound 0.05 µM): 0.289 | relative viability (LK-2; first compound 0.1581 µM): 0.214 | relative viability (LK-2; first compound 0.5 µM): 0.23 | relative viability (NCI-H1666; first compound 0.005 µM): 0.785 | relative viability (NCI-H1666; first compound 0.01581 µM): 0.831 | relative viability (NCI-H1666; first compound 0.05 µM): 0.801 | relative viability (NCI-H1666; first compound 0.1581 µM): 0.819 | relative viability (NCI-H1666; first compound 0.5 µM): 0.825 | relative viability (SW 900; first compound 0.005 µM): 0.566 | relative viability (SW 900; first compound 0.01581 µM): 0.53 | relative viability (SW 900; first compound 0.05 µM): 0.67 | relative viability (SW 900; first compound 0.1581 µM): 0.426 | relative viability (SW 900; first compound 0.5 µM): 0.45 | relative viability (HCC-366; first compound 0.005 µM): 0.582 | relative viability (HCC-366; first compound 0.01581 µM): 0.601 | relative viability (HCC-366; first compound 0.05 µM): 0.671 | relative viability (HCC-366; first compound 0.1581 µM): 0.727 | relative viability (HCC-366; first compound 0.5 µM): 0.587 | relative viability (201T; first compound 0.005 µM): 0.536 | relative viability (201T; first compound 0.01581 µM): 0.566 | relative viability (201T; first compound 0.05 µM): 0.6 | relative viability (201T; first compound 0.1581 µM): 0.57 | relative viability (201T; first compound 0.5 µM): 0.553
